# In US20260158014A1, “METHODS OF ADMINISTERING VOXELOTOR” (Global Blood Therapeutics, Inc., priority 2021, published 2026):
# Columns and labels:
# CYP3A4 = CYP3A4 (Homo sapiens, UniProt P08684); test: Clinical probe-substrate DDI study: midazolam; conditions: healthy subjects
# Method: The effect of voxelotor on the pharmacokinetics (PK) of a single dose of caffeine, warfarin sodium, omeprazole, and midazolam hydrochloride, which are probe substrates for cytochrome P450 (CYP)1A2, CYP2C9, CYP2C19, and CYP3A4, respectively, were studied in healthy subjects. During Period 1, subjects received a single dose of caffeine 100 mg, warfarin sodium 10 mg+vitamin K 10 mg, omeprazole 20 mg, and midazolam hydrochloride 2 mg on Day 1. During Period 2, subjects received voxelotor 900 mg QD on Days 1 and 2 followed by 600 mg QD on Day 3, a single dose of caffeine 100 mg, warfarin sodium 10 mg+vitamin K 10 mg, omeprazole 20 mg, and midazolam hydrochloride 2 mg on Day 4, and voxelotor 600 mg QD on Days 4 through 7.
# Whole blood and plasma concentrations of voxelotor and plasma concentrations of caffeine, paraxanthine, S-warfarin, omeprazole, 5-hydroxyomeprazole, midazolam, and 1-hydroxymidazolam were determined using validated assays.
# P-gp = P-gp (Homo sapiens, UniProt P08183); test: Clinical DDI: voxelotor on digoxin; conditions: in vivo
# Sequence of P-gp (P08183 whole entry): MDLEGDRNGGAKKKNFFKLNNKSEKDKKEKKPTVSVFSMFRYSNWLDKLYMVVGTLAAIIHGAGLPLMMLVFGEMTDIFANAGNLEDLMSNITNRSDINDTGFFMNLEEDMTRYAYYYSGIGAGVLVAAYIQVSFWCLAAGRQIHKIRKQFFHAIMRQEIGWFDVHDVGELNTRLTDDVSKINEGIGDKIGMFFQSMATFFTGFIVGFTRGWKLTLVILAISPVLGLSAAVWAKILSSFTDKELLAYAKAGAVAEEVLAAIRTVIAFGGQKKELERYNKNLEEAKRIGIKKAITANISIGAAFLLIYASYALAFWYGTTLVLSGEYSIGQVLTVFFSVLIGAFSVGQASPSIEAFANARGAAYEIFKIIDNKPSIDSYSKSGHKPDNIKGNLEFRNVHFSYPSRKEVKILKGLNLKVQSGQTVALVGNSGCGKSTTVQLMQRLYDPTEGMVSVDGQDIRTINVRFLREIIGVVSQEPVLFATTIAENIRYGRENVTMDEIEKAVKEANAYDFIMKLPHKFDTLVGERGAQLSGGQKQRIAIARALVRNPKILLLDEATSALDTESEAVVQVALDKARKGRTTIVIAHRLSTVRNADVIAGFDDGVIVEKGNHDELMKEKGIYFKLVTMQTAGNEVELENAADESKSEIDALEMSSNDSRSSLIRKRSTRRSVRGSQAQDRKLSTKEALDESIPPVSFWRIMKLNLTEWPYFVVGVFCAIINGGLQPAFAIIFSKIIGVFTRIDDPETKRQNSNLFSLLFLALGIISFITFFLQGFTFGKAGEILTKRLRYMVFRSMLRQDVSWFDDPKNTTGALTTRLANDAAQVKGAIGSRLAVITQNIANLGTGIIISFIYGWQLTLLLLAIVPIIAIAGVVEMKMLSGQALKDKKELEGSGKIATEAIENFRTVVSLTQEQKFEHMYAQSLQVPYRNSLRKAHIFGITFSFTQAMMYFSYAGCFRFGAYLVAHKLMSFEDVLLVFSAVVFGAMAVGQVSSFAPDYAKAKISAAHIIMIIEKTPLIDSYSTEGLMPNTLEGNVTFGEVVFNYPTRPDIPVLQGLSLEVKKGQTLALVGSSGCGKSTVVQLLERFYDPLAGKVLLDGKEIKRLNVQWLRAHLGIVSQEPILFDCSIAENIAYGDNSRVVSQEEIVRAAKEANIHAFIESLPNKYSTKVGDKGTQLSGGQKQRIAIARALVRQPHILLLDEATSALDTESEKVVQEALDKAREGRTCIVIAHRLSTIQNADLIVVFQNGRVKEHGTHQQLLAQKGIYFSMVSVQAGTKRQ
# [1] = voxelotor 900 mg QD days 1-2, then 600 mg QD, midazolam hydrochloride 2 mg single dose
# Sequence of CYP3A4 (P08684 whole entry): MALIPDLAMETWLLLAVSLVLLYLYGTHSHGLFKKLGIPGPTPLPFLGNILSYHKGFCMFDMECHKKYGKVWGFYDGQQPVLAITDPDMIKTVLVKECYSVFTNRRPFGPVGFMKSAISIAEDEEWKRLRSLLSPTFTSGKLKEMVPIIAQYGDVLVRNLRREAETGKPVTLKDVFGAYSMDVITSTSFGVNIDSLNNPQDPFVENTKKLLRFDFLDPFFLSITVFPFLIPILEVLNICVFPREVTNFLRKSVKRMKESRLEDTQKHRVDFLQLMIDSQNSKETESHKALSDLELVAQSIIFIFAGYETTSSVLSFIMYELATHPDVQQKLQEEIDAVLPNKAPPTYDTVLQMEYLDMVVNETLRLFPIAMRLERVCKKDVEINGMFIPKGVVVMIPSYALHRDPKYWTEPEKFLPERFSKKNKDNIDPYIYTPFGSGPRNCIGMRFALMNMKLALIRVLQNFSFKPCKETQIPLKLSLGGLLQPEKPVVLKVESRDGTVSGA
smiles,measurement,setting,value
OCc1ncc2n1-c1ccc(Cl)cc1C(c1ccccc1F)=NC2 [1′-hydroxy-midazolam],increase of overall exposure of midazolam metabolite in the presence of voxelotor,CYP3A4; [1],75%
C[C@H]1O[C@@H](O[C@H]2[C@@H](O)C[C@H](O[C@H]3[C@@H](O)C[C@H](O[C@H]4CC[C@@]5(C)[C@H](CC[C@@H]6[C@@H]5C[C@@H](O)[C@]5(C)[C@@H](C7=CC(=O)OC7)CC[C@]65O)C4)O[C@@H]3C)O[C@@H]2C)C[C@H](O)[C@@H]1O [digoxin],effect of concomitant OXBRYTA on digoxin (P-gp substrate),P-gp,did not alter digoxin to a clinically relevant extent
Cc1ncc2n1-c1ccc(Cl)cc1C(c1ccccc1F)=NC2 [midazolam],observed exposure increase of midazolam with voxelotor,CYP3A4,1.6 fold
same,increase of overall exposure of midazolam in the presence of voxelotor,CYP3A4; [1],63%
